According to PMC10814725, “In Vitro Anti-Inflammatory Study of Limonoids Isolated from Chisocheton Plants” (Current Issues in Molecular Biology, 2024):
Read-outs that look alike come from different tables or passages of the source.

What was measured:
IL-6 = assay: ELISA of IL-6 production in LPS-stimulated THP-1 cells; type: cell-based, human; conditions: for IC50: Homo sapiens, THP-1, 18 h, LPS-stimulated (10 ng/mL) THP-1 cells, 1, 5, 10, 20 µM, 18 h; for IL-6 SI (selectivity index, CC50/IC50): THP-1 CC50 / IL-6 IC50
Method: (§1) The logarithmic growth phase of THP-1 cells was achieved by seeding in 96-well plates at a density of 5 × 10^4 cells/well and differentiated for 24 h in the presence of PMA (0.5 μM solution in medium). After 24 h of incubation, the culture medium was removed from the 96-well plate and the cells were washed with PBS. […] The cells were pretreated with 17 limonoids at the corresponding concentration for 1 h, followed by the addition of LPS (10 ng/mL) and then incubation at 37 °C for 18 h. Finally, 50 μL of each culture supernatant solution was taken to determine the concentrations of IL-6, MCP-1, and IL-1β using the corresponding commercially available human ELISA kits following the manufacturer’s instructions. The analyte concentration in the supernatant was measured in pg/mL, and the inhibition level was expressed as a fold change compared to the LPS (−) control group. To determine the IC50 value, the dose-response data were normalized to the LPS-stimulated-only group, and the percentage of inhibition was calculated using the following formula: % Inhibition=(Absorbance of LPS+ control−Absorbance of compound treatment with LPS)/(Absorbance of LPS+ control−Absorbance of LPS− control)×100
(§2) Furthermore, the % inhibition data were interpolated into linear equations to determine the IC50 values.

TNF-α = assay: ELISA of TNF-α production in LPS-stimulated THP-1 cells; type: cell-based, human; conditions: for IC50: LPS-stimulated (10 ng/mL) THP-1 cells, 1, 5, 10, 20 µM, 18 h, read-out: TNF-α IC50; for TNF-α SI (selectivity index, CC50/IC50): THP-1 CC50 / TNF-α IC50
phosphorylated-p38 MAPK = assay: Western blotting of phosphorylated-p38 MAPK in LPS-stimulated THP-1 cells; type: cell-based, human; conditions: 10 µM, LPS 10 ng/mL, 18 h, compared to LPS (+) group
Method: THP-1 cells were seeded at a density of 1 × 10^6 cells/well in 24-well plates. The cells were then pretreated with a concentration of 10 µM of compounds 3, 5, 9, or 15 for 1 h. Subsequently, LPS (10 ng/mL) was added to the cells, which were incubated for 18 h. The protein concentrations were determined using a bicinchoninic acid (BCA) assay kit.
For Western blot analysis, proteins were separated by SDS-PAGE and transferred onto a polyvinylidene fluoride (PVDF) membrane. The membranes were blocked with 2.5% BSA in Tris-buffered saline-Tween (TBST) for 1 h at room temperature. After three washes with TBST, the membranes were incubated with a diluted primary antibody solution (anti-phosphorylated-p38 MAPK or anti-p38 MAPK) at a 1:1000 dilution for 1 h at room temperature. After three washes with TBS-T, the membranes were incubated with a secondary antibody conjugated to horseradish peroxidase (HRP; 1:4000 dilution) for 30 min at room temperature and subsequently detected by chemiluminescence. Finally, the bands were visualized and quantified using an ImageQuant 800 GxP system (Cytiva, MA, USA). The results were expressed as ratios relative to the reference protein β-actin.

[1] = Cell viability by CCK-8, THP-1 cells; type: cell-based; conditions: human, PMA-differentiated THP-1 cells; for CC50 at 18 h: concentration causing 50% cytotoxicity against THP-1 cells
Method: (§3) The viability of HEK-Blue^TM hTLR4, […], and THP-1 cells was evaluated using the Dojindo Cell Counting Kit-8 (CCK-8) according to the manufacturer’s instructions. The viability of HEK-Blue^TM hTLR4 and THP-1 cells was assessed under identical conditions to the corresponding assay treatments. HEK-Blue^TM hTLR4 cells (2 × 10^4 cells/well) were seeded in 96-well plates and serum-starved for 24 h at 37 °C in a 5% CO2 atmosphere. After incubation, the culture medium was aspirated, and the cells were washed with saline. High-glucose D-MEM supplemented with 0.1% FBS and 1% penicillin–streptomycin was added and pretreated with or without the 17 limonoids at a concentration of 20 µM for 1 h, followed by LPS addition at a concentration of 10 ng/mL. After 18 h of incubation, a 10% (v/v) CCK-8 solution was added to each well and incubated at 37 °C for 1 h, and cell viability was calculated.
The THP-1 cells at 5 × 10^4 cells/well were differentiated for 24 h in the presence of PMA (0.5 μM solution in medium). After 24 h of incubation, the culture medium was removed from the 96-well plate and the cells were washed with PBS. Fresh RPMI-1640 medium supplemented with 0.1% FBS and 1% penicillin–streptomycin was added to each well and incubated at 37 °C for overnight. The cells were pretreated with 17 limonoids at the corresponding concentration for 1 h followed by the addition of LPS (10 ng/mL) and incubated at 37 °C for 18 h. Furthermore, CCK-8 solution was added to each well with a final concentration was 10% (v/v) and incubated at 37 °C. After 1 h, the absorbance of each well was measured at […] by using a microplate reader (BioTek Cytation 5 Cell Imaging Multimode Reader). Cell viability was calculated using the following formula: % Cell viability=(Absorbance of sample−Absorbance of Background)/(Absorbance of control−Absorbance of Background)×100 where the absorbance of the sample is the absorbance of cells treated by the compound with or without LPS, the absorbance of the control is the absorbance of LPS (−)-treated cells, and the background absorbance is the absorbance of a well containing only the medium. The results were expressed as 100% cell viability.

[2] = system: TNF-α, IL-6, IL-1β, and MCP-1; assay: ELISA of pro-inflammatory markers overall (TNF-α, IL-6, IL-1β, MCP-1) in LPS-stimulated THP-1 cells; type: cell-based; conditions: Homo sapiens, read-out: Overall IC50 values for the evaluated pro-inflammatory markers
Method: (§4) The logarithmic growth phase of THP-1 cells was achieved by seeding in 96-well plates at a density of 5 × 10^4 cells/well and differentiated for 24 h in the presence of PMA (0.5 μM solution in medium). After 24 h of incubation, the culture medium was removed from the 96-well plate and the cells were washed with PBS. Fresh RPMI-1640 medium supplemented with 0.1% FBS and 1% Penicillin–Streptomycin was added to each well and incubated at 37 °C overnight. The cells were pretreated with 17 limonoids at the corresponding concentration for 1 h, followed by the addition of LPS (10 ng/mL) and then incubation at 37 °C for 18 h. Finally, 50 μL of each culture supernatant solution was taken to determine the concentrations of IL-6, MCP-1, and IL-1β using the corresponding commercially available human ELISA kits following the manufacturer’s instructions. The analyte concentration in the supernatant was measured in pg/mL, and the inhibition level was expressed as a fold change compared to the LPS (−) control group. To determine the IC50 value, the dose-response data were normalized to the LPS-stimulated-only group, and the percentage of inhibition was calculated using the following formula: % Inhibition=(Absorbance of LPS+ control−Absorbance of compound treatment with LPS)/(Absorbance of LPS+ control−Absorbance of LPS− control)×100
as §2

[3] = Cell viability by CCK-8, HEK-Blue hTLR4 cells; type: cell-based; conditions: human
Method: as §3

in vitro = type: cell-based; conditions: mouse
Method: as §3

[4] = system: TLR4-dependent NF-kB activation in HEK-Blue hTLR4 cells; assay: SEAP reporter gene assay, antagonist effect on LPS-stimulated TLR4-dependent NF-κB activation; type: cell-based, human; conditions: 20 µM, LPS 10 ng/mL, 18 h, vs. LPS stimulated-only group
Method: The SEAP Reporter Gene Assay was conducted as previously described. HEK-Blue^TM hTLR4 cells (2 × 10^4 cells/well) were seeded in 96-well plates and were serum-starved for 24 h at 37 °C in a 5% carbon dioxide atmosphere. After incubation, the culture medium was aspirated, and the cells were washed with saline. High-glucose D-MEM supplemented with 0.1% FBS and 1% penicillin-streptomycin was added and treated with or without the 17 limonoids at a concentration of 20 µM for 1 h, followed by LPS addition at a concentration of 10 ng/mL for the LPS-stimulated group. After incubation at 37 °C for 18 h, the supernatants were collected and PNPP in PBS solution (0.8 mM, 100 μL) was added, followed by 4 h of shading at 25 °C. The optical density (OD) of the samples was measured at 405 nm using a microplate reader (BioTek Cytation 5 Cell Imaging Multimode Reader, Agilent Technologies, Santa Clara, CA, USA).

MCP-1 = assay: ELISA of MCP-1 production in LPS-stimulated THP-1 cells; type: cell-based, human; conditions: 10 µM, compared to LPS (+)-stimulated group, THP-1 cells
Method: as §1, §2

IL-1β = assay: ELISA of IL-1β production in LPS-stimulated THP-1 cells; type: cell-based, human; conditions: 10 µM, compared to LPS (+)-stimulated group
Method: as §4, §2

[5] = LPS 10 ng/mL, read-out: Viability Cell (%) THP-1 LPS-Induced (10 ng/mL)
[6] = without LPS, read-out: Viability Cell (%) THP-1 Without LPS
[7] = Viability Cell (%) HEK-Blue hTLR4 LPS-Induced (10 ng/mL)
[8] = Viability Cell (%) HEK-Blue hTLR4 Without LPS
[9] = 10 µM, compared to LPS (+)-stimulated group, THP-1 cells

| Compound | IC50 (IL-6) [µM] | IC50 (TNF-α; Homo sapiens, THP-1, 18 h) [µM] | TNF-α SI (selectivity index, CC50/IC50) (TNF-α) | Effect on p-p38 MAPK levels (phosphorylated-p38 MAPK) | viability at 18 h, 10 µM [1, 5] [%] | viability at 18 h, 10 µM [1, 6] [%] | CC50 at 18 h [1] [µM] | IC50 [2] [µM] | viability at 18 h, 20 µM [3, 7] [%] | viability at 18 h, 20 µM [3, 8] [%] | viability at 5 µM (in vitro) [%] | viability at 10 µM (in vitro) [%] | viability at 20 µM (in vitro) [%] | IL-6 SI (selectivity index, CC50/IC50) (IL-6) | Inhibition of SEAP release (NF-κB activity inhibition) [4] | Effect on IL-6 level (IL-6; [9]) | Effect on TNF-α level (TNF-α; [9]) | IC50 (TNF-α) [µM] | Effect on MCP-1 level (MCP-1) | Effect on IL-1β level (IL-1β) |
| --- | --- | --- | --- | --- | --- | --- | --- | --- | --- | --- | --- | --- | --- | --- | --- | --- | --- | --- | --- | --- |
| CC(=O)O[C@H]1[C@@H](OC(C)=O)[C@]2(C)[C@H](CC[C@@]3(C)[C@H](c4ccoc4)C[C@H]4O[C@@]423)[C@@]2(C)C=CC(=O)C(C)(C)[C@H]12 [Compound 4, 6α-(acetoxy)-14β,15β-epoxyazadirone] | 1.64 | 5.6 | 6.78 | significantly suppressed | > 99.9 | > 99.9 | 38 | < 20 | > 99.9 | > 99.9 | 85 ± 5.66 | 85.9 ± 5.34 | 82.4 ± 1.15 |  |  |  |  |  |  |  |
| CC1(C)C(=O)C=C[C@]2(C)[C@H]3CC[C@]4(C)C(=CC[C@H]4C4CCOC4=O)[C@]3(C)[C@H](O)C[C@@H]12 (stereo partly shown) [Compound 16, pentandricine C] | 5.69 |  |  | significantly suppressed | > 99.9 | 90.4 ± 7.6 | 110 | < 20 | > 99.9 | > 99.9 | 91.8 ± 3.18 | 81.3 ± 7.05 | 89.4 ± 7.08 | 19.40 |  |  |  |  |  |  |
| CC(=O)O[C@@H]1C[C@]2(C)C(=CC[C@H]2c2ccoc2)[C@@]2(C)[C@H]1[C@@]1(C)C=CC(=O)C(C)(C)[C@@H]1C[C@H]2OC(C)=O [Compound 11, 11α-acetoxyazadirone] |  |  |  |  | > 99.9 | > 99.9 |  |  | 9.84 ± 7.34 | 52.6 ± 4.74 | 90.1 ± 7.88 | 79 ± 1.58 | 78.9 ± 2.21 |  | significantly inhibited SEAP release |  |  |  |  |  |
| CC(=O)O[C@@H]1[C@H](O)[C@H]2C(C)(C)C(=O)C=C[C@]2(C)[C@H]2CC[C@]3(C)C(=CC[C@H]3c3ccoc3)[C@]12C [Compound 9, nimonol] |  | < 3 | 49.92 | significantly suppressed | 83.9 ± 7.6 | > 99.9 | 107 | < 20 | 74.8 ± 6.22 | > 99.9 | 93.8 ± 1.86 | 89.9 ± 2.44 | 79.4 ± 10.2 | 94.98 |  | significantly reduced | significantly reduced | 2.15 | significantly reduced | significantly reduced |
| CC(=O)O[C@@H]1C[C@H]2C(C)(C)C(=O)C=C[C@]2(C)[C@H]2CC[C@]3(C)C(=CC[C@H]3C3CCOC3=O)[C@@]21C (stereo partly shown) [Compound 15, pentandricine B] | 7.37 | 16.4 | 5.88 | significantly suppressed | > 99.9 | > 99.9 | 96.6 | < 20 | 84.4 ± 18.7 | > 99.9 | 92.8 ± 1.79 | 91.9 ± 3.59 | 90.9 ± 4.95 | 13.11 |  |  |  |  |  |  |
| CC(=O)O[C@@H]1C[C@H]2C(C)(C)C(=O)C=C[C@]2(C)[C@H]2CC[C@@]3(C)[C@H](c4ccoc4)C[C@H]4O[C@]43[C@@]21C [Compound 13, trichilenone acetate] |  |  |  |  | > 99.9 | 90.8 ± 3.23 |  |  | > 99.9 | 92.4 ± 10.6 | > 99.9 | > 99.9 | 91.9 ± 4.37 |  | significantly inhibited SEAP release |  |  |  |  |  |
